Read-outs that look alike come from different tables or passages of the source.
What was measured:
[1] = tested on: expression profile in liver; assay: Support Vector Machine classification of liver expression profiles; settings: compounds not present in the initial training set; expression profiles of individual animals; Figures 8 and 9
Protocol: Adult male Wistar rats were dosed in vivo and the resulting expression profile in liver was determined. SVMs were built for the discrimination between 3 different classes of hepatotoxicants, non-toxic substances and controls. The training set consisted of 180 gene expression profiles from individual animals treated with direct acting, cholestatic, steatotic, non-toxic compounds and corresponding vehicle-dosed controls. As a first step the chips were rescaled to a median value of 0 and a standard deviation of 1. […] Multi-class classification for a given test chip was then carried out by combining the outputs of all binary. classifiers. A leave-one-out cross validation procedure was applied to assess the quality of the trained machines with respect to the training data. […] By removing all replicates of one compound from the training data, followed by classifying these chips with the resulting decision function, the individual contribution of the given compound for a successful classifier could be examined. RFE was used to investigate the relationship between the number of genes for generating the classifiers, the resulting prediction accuracy, cross-validation errors and the number of used support vectors. The first iteration reduced the gene count to a multiple of 2. In each subsequent iteration the gene count was halved until 32 genes remained. […]

[2] = tested on: genes from the GADD family; assay: RT-PCR confirmation of induction of GADD family genes by direct acting compounds; assay type: in vivo, Wistar rats; settings: rat liver (summary of Table 9)
Protocol: (§1) The quality of RNA was assessed with gel electrophoresis.
(§2) The induction of these genes correlates with the histopathological findings in a time related fashion: While PEG-3 seems to be an early marker, GADD-45 and […] appear regulated at later time points, when the tissue damage is obvious by conventional endpoints.

[3] = tested on: PEG3; assay: Quantitative RT-PCR of GADD-family genes in liver after in vivo dosing; design: species or system Wistar rats; settings: control = 1.0
Protocol: as §1, §2

[4] = tested on: Gadd153; assay: as above; design: species or system Wistar rats; settings: control = 1.0
Protocol: as §1, §2

[5] = tested on: Gadd45; assay: as above; design: species or system Wistar rats; settings: control = 1.0
Protocol: as §1, §2

[6] = tested on: EGR-1; assay: Quantitative RT-PCR of EGR-1 in liver after in vivo dosing; design: species or system rats; settings: every 12 Hours, sacrificed 3 hours after the last administration, control = 1.0
Protocol: as §1
(§3) Tolcapone (Tasmar) is a human hepatotoxin with no known toxicity in the rat.

[7] = tested on: marker genes; settings: rat, in vivo
Protocol: (§4) Male Wistar rats (generally 5 animals/dose-group) were purchased from BRL (Fullingsdorf, Switzerland) and housed individually. Treated animals were dosed either orally, intraperitoneally, or intravenously with several doses of test compounds (Table 1). The test compounds were categorized according to their toxic manifestation in the rat liver. Control animals received the same volume of vehicle as placebo. Necropsy was performed 6 or 24 hours after a single administration and liver samples from the left medial lobe were placed immediately in RNALater (Ambion, TX, USA) for RNA extraction and gene expression analysis. Samples in RNALater were stored at -20°C until further processing.
(§5) RNA isolation from hepatocytes was typically performed by resuspending approximately 3 Mio. Cells/1.2 mL RNAzol (Tel-Test Inc., TX, USA). […] Total RNA was isolated according to the manufacturer's instruction and quantified by measuring the optical density at 280 nm. The quality of RNA was assessed with gel electrophoresis.
(§6) The regulation of the mRNA levels of several candidate genes (Table 4) was verified with quantitative RT-PCR. […] For each performed RT-PCR reaction, the specificity of the assay was evaluated with dissociation curve software (Applied Biosystems), as well as by assessment of the size of the product using either gel electrophoresis or Agilent Bioanalyzer. […]

[8] = tested on: PC3 (BTG2); settings: rat, in vivo
Protocol: as §4
(§7) RNA isolation from hepatocytes was typically performed by resuspending approximately 3 Mio. Cells/1.2 mL RNAzol (Tel-Test Inc., TX, USA). […] Total RNA was isolated according to the manufacturer's instruction and quantified by measuring the optical density at 280 nm. The quality of RNA was assessed with gel electrophoresis. […]
(§8) After hybridization and scanning, the expression level of each gene was calculated by subtracting the fluorescence intensity of the mismatch probes from the match signal (=average difference) using the [sequence] […] Gene expression data were further analyzed with an in-house-developed data analysis tool (RACE-A, Hoffmann-La Roche, Basel, Switzerland). […]

[9] = tested on: AH-R; settings: rat, in vivo
Protocol: as §4, §5, §6

[10] = tested on: AH-R; settings: rat, in vivo; remark: listed apart in the source
Protocol: as §4, §7, §8

[11] = tested on: CYP2B2; settings: rat, in vivo
Protocol: as §4, §5, §6

[12] = tested on: CYP2B2; settings: rat, in vivo; remark: listed apart in the source
Protocol: as §4, §7, §8

[13] = tested on: EGR1; assay: Gene expression analysis (GeneChip) of EGR1 after exposure of rats; assay type: in vivo; settings: high inter-individual variability
Protocol: as §1, §3

[14] = tested on: marker genes; assay: RT-PCR of marker genes, differentiation of toxic and non-toxic 5-HT6 receptor antagonists (Fig. 10); settings: rat liver, some of the selected genes
Protocol: as §4, §5, §6

[15] = tested on: CYP2B; assay: Western-blot of liver extracts with antibody specific for CYP2B; assay type: in vivo, rat
Protocol: In addition, Western blots were performed using specific antibodies against the cytochrome P450 CYP2B family in order to evaluate if the clear induction of messenger RNA also led to an increase in the hepatic protein levels. […] This is due to the time lag between protein and mRNA induction (Fig. 11).

[16] = 2 mg/kg, sampling time 24 hours
[17] = 10 mg/kg, sampling time 6 hours
[18] = 10 mg/kg, sampling time 24 hours
[19] = 50 mg/kg, sampling time 6 hours
[20] = 10 mg/kg, sampling time 2 hours
[21] = 60 mg/kg, sampling time 2 hours
[22] = 60 mg/kg, sampling time 6 hours
[23] = 60 mg/kg, sampling time 24 hours
[24] = 4500 mmol/kg, sampling time 2 hours
[25] = 4500 mmol/kg, sampling time 6 hours
[26] = 4500 mmol/kg, sampling time 24 hours

O=C(O)CCCCCCNC1c2ccccc2CCc2ccccc21 [amineptine]
classification by support vector machines (identification of compound class) [1]: steatotic compound

CC(=N)S [Thioacetamide]
induction of genes from the GADD family, namely GADD-45, GADD-153 and PEG-3 [2]: induction | PCR PEG3 ([3]; 2 mg/kg, sampling time 6 hours): 2.0 fold induction | PCR PEG3 [3, 16]: 0.9 fold induction | PCR PEG3 [3, 17]: 1.9 fold induction | PCR PEG3 [3, 18]: 0.5 fold induction | PCR PEG3 [3, 19]: 7.8 fold induction | PCR Gadd153 ([4]; 2 mg/kg, sampling time 6 hours): 0.9 fold induction | PCR Gadd153 [4, 16]: 0.0 fold induction | PCR Gadd153 [4, 17]: 1.3 fold induction | PCR Gadd153 [4, 18]: 0.9 fold induction | PCR Gadd153 [4, 19]: 2.5 fold induction | PCR Gadd45 ([5]; 2 mg/kg, sampling time 6 hours): 8.1 fold induction | PCR Gadd45 [5, 16]: 0.0 fold induction | PCR Gadd45 [5, 17]: 2.9 fold induction | PCR Gadd45 [5, 18]: 1.7 fold induction | PCR Gadd45 [5, 19]: 27.6 fold induction

CCN(CC)C(=O)/C(C#N)=C/c1cc(O)c(O)c([N+](=O)[O-])c1 [Entacapone]
PCR EGR-1 ([6]; 600 mg/kg administered three times): 1.0 fold induction

NN [Hydrazine]
induction of genes from the GADD family, namely GADD-45, GADD-153 and PEG-3 [2]: induction | PCR PEG3 [3, 20]: 3.4 fold induction | PCR PEG3 [3, 17]: 6.3 fold induction | PCR PEG3 [3, 18]: 2.1 fold induction | PCR PEG3 [3, 21]: 20.4 fold induction | PCR PEG3 [3, 22]: 3.8 fold induction | PCR PEG3 [3, 23]: 11.9 fold induction | PCR Gadd153 [4, 20]: 2.2 fold induction | PCR Gadd153 [4, 17]: 4.0 fold induction | PCR Gadd153 [4, 18]: 0.4 fold induction | PCR Gadd153 [4, 21]: 1.0 fold induction | PCR Gadd153 [4, 22]: 0.9 fold induction | PCR Gadd153 [4, 23]: 1.7 fold induction | PCR Gadd45 [5, 20]: 1.1 fold induction | PCR Gadd45 [5, 17]: 9.9 fold induction | PCR Gadd45 [5, 18]: 0.2 fold induction | PCR Gadd45 [5, 21]: 1.0 fold induction | PCR Gadd45 [5, 22]: 1.8 fold induction | PCR Gadd45 [5, 23]: 1.0 fold induction

Nc1ccc(S(=O)(=O)c2cc(Br)nc(N3CCCC3)c2)cc1 [Ro66-0074, 4-(2-Bromo-6-pyrrolidin-1-yl-pyridine-4-sulfonyl)-phenylamine]
expression levels of few marker genes (RT-PCR, Fig. 10) [7]: slight induction | PC3 (BTG2) Affymetrix ([8]; 360 min): 0.4 | PC3 (BTG2) Affymetrix ([8]; 1440 min): 0.6 | AH-R RT-PCR ([9]; 360 min): 1.7 | AH-R RT-PCR ([9]; 1440 min): 1.2 | AH-R Affymetrix ([10]; 360 min): 1.0 | AH-R Affymetrix ([10]; 1440 min): 1.0 | CYP2B2 RT-PCR ([11]; 360 min): 8.4 | CYP2B2 RT-PCR ([11]; 1440 min): 1.3 | CYP2B2 Affymetrix ([12]; 360 min): -1.2 | CYP2B2 Affymetrix ([12]; 1440 min): 1.1

Cc1ccc(C(=O)c2cc(O)c(O)c([N+](=O)[O-])c2)cc1 [Tolcapone (Tasmar), Tolcapone]
PCR EGR-1 ([6]; 300 mg/kg administered three times): 17.6 fold induction | induction of EGR1 ([13]; high dose 300 mg/kg): slight induction

(4-Amino-N-(6-bromo-1 H -indol-4-yl)-benzenesulfonamide [Ro65-7199]
expression levels of few marker genes (RT-PCR, Fig. 10) [14]: larger effect | induction of CYP2B (hepatic protein levels, Western blot) ([15]; 6 hours after administration): could not be detected | protein levels of CYP2B (Western blot) ([15]; 24 hours and 7 days after treatment): closely paralleled the amounts of mRNA

Clc1ccccc1Cl [1,2-dichlorobenzene]
induction of genes from the GADD family, namely GADD-45, GADD-153 and PEG-3 [2]: induction | classification by support vector machines (identification of compound class) [1]: direct acting compound | PCR PEG3 ([3]; sampling time 2 hours): 3.9 fold induction | PCR PEG3 ([3]; sampling time 6 hours): 1.9 fold induction | PCR PEG3 ([3]; sampling time 24 hours): 54.6 fold induction | PCR Gadd153 ([4]; sampling time 2 hours): 0.9 fold induction | PCR Gadd153 ([4]; sampling time 6 hours): 0.6 fold induction | PCR Gadd153 ([4]; sampling time 24 hours): 27.9 fold induction | PCR Gadd45 [5, 24]: 2.3 fold induction | PCR Gadd45 [5, 25]: 4.9 fold induction | PCR Gadd45 [5, 26]: 53.0 fold induction

Clc1ccc(Cl)cc1 [1,4-dichlorobenzene]
PCR PEG3 ([3]; sampling time 2 hours): 0.8 fold induction | PCR PEG3 ([3]; sampling time 6 hours): 0.7 fold induction | PCR PEG3 ([3]; sampling time 24 hours): 4.2 fold induction | PCR Gadd153 ([4]; sampling time 2 hours): 1.0 fold induction | PCR Gadd153 ([4]; sampling time 6 hours): 0.9 fold induction | PCR Gadd153 ([4]; sampling time 24 hours): 2.4 fold induction | PCR Gadd45 [5, 24]: 1.7 fold induction | PCR Gadd45 [5, 25]: 0.8 fold induction | PCR Gadd45 [5, 26]: 7.2 fold induction

O=[N+]([O-])c1ccc(O)c([N+](=O)[O-])c1 [Dinitrophenol]
PCR EGR-1 ([6]; 10 mg/kg administered three times): 3.4 fold induction | PCR EGR-1 ([6]; 30 mg/kg administered three times): 8.5 fold induction | induction of EGR1 ([13]; 10 and 30 mg/kg): slight induction

— patent EP1344834A2, “Methods for the toxicity prediction of a compound” (F. HOFFMANN-LA ROCHE AG, priority 2002, dated 2003)
